PubChem BioAssay AID1159563 (GlaxoSmithKline (GSK), 2015)
Activity calls are given as the source filed them. No rule for the calls is given here.

System: HepG2 cytotoxicity
Experiment: HepG2 cell cytotoxicity, cytotoxicity control (AID 1159563)

Structure (SMILES) | IC50
Cc1ccc2c(c1)SC(C(=O)Nc1n[nH]c(-c3ccccn3)n1)C2 (stereo not given) | 25 µM
NC(N)=Nc1nc(-c2ccc(NC(N)=NCCN3CCCC3)cc2)cs1 | > 100 µM (inactive)
Cc1cc(C)c(C#N)c(SCC(=O)c2ccc3c(c2)OCO3)n1 | > 100 µM (inactive)
CCn1c(-c2nonc2N)nc2c([C@@H](C)O)ncc(O[C@H](CN)c3ccccc3)c21 | 79 µM
Cc1c(C(=O)NCCCCn2ccnc2)oc2c(C)cccc12 | 79 µM
O=c1[nH]cnc2c([C@@H]3O[C@H](CO)[C@@H](O)[C@H]3O)[nH]nc12 | > 100 µM (inactive)
O=C(Nc1ccc(Br)cn1)c1ccc(Cn2cnc([N+](=O)[O-])n2)cc1 | > 100 µM (inactive)
Nc1nonc1-c1nc2cncc(C(=O)N3CC[C@H](N)C3)c2n1CC1CC1 | > 100 µM (inactive)
COc1ccc2ncc(=O)n(CCN3CCC(NCc4ccc(-c5cccs5)cc4)CC3)c2n1 | 13 µM
CN(C)S(=O)(=O)c1cccc(C(=O)Nc2nc(-c3ccccn3)cs2)c1 | > 100 µM (inactive)
COc1ccc(C)cc1-c1csc(NC(=O)C(C)n2ccnc2)n1 (stereo not given) | > 100 µM (inactive)
Cc1cccnc1CN1CCN(CCCOc2ccc(-c3ccc(C(N)=O)cc3)cc2)CC1 | > 100 µM (inactive)
COc1ccccc1CNc1cc(C2CC2)nc(-c2nccn2C)n1 | 20 µM
O=C(NCC1CCCCC1)c1cc(=O)c2ccccc2o1 | 25 µM
COc1ccc2nccc(NC(=O)C3(OC)CCN(CC(O)c4ccc5c(c4)OCCO5)CC3)c2n1 (stereo not given) | 40 µM
CCN(Cc1ccncc1)Cc1ccc(NC(=O)c2cc(-c3ccc(F)cc3)n[nH]2)cc1 | > 100 µM (inactive)
CCCCCNC(=O)c1c[nH]c2ccc(S(=O)(=O)N(C)c3ccc(OCC)cc3)cc2c1=O | > 100 µM (inactive)
CCOc1ccc(OCC(=O)N2c3ccccc3CC2C(=O)NC)cc1 (stereo not given) | > 100 µM (inactive)
Cc1cc2cncn2c(C2CCCCN2C(=O)c2cccs2)n1 (stereo not given) | > 100 µM (inactive)
N#Cc1cc(N2CCCC2=O)ccc1Sc1ccccc1CO | > 100 µM (inactive)
CCCn1c(NC(=O)Cc2ccc(Cl)cc2)nc2ccccc21 | > 100 µM (inactive)
Cc1cc(NC(=O)C2CCCCC2)n(-c2nc3c(c(=O)[nH]2)CCC3)n1 | 50 µM
O=C(Nc1cccc(F)c1)N1CCC(Oc2cccc(-c3cccnc3)c2)CC1 | > 100 µM (inactive)
Cc1nc2c(-c3nc(-c4ccc(N)cc4)n[nH]3)cccn2c1C | 16 µM

Structure (SMILES) | IC50
CC1(Oc2cncc(Cl)c2)CCN(Cc2cc3ccccc3[nH]2)C1 (stereo not given) | 32 µM
O=C(Nc1cccc(Cl)c1)Nc1ccc([N+](=O)[O-])cc1Cl | 32 µM
COCCn1cnc2cc(NC(=O)C3CCCCC3)cc(C(=O)N3CCc4sccc4C3)c21 | > 100 µM (inactive)
COc1ccc(S(=O)(=O)Nc2ccc(CN3CCN(C(=O)c4cccc(C#N)c4)CC3)cc2)cc1 | > 100 µM (inactive)
Cc1c(CNC(=O)c2ccc(Cn3cc(Cl)c([N+](=O)[O-])n3)cc2)cnn1C | > 100 µM (inactive)
COc1cc(Cl)c(C)cc1NC(=O)c1ccc([N+](=O)[O-])s1 | 32 µM
CC(CNS(=O)(=O)c1ccc(OC(F)F)cc1)c1ccc(NC(=O)c2ccncc2)cc1 (stereo not given) | 100 µM
Cc1ccc(NC(C)C(=O)Nc2ccc(C#N)cc2)cc1S(=O)(=O)N1CCCCC1 (stereo not given) | 79 µM
O=C(NCc1ccncc1)c1ccccc1N1CCCN(C(=O)Cc2ccc(F)c(F)c2)CC1 | > 100 µM (inactive)
COc1cccc(C(=O)[C@H]2C[C@@H]2CN(Cc2cccnc2)Cc2cccnc2)c1 | > 100 µM (inactive)
Cc1ccc(Nc2nc(N)nc(CNC(c3nc4ccccc4[nH]3)C(C)C)n2)cc1 (stereo not given) | > 100 µM (inactive)
CCOc1cnn(C)c(=O)c1Nc1ccc(C(=O)NCc2ccc(F)cc2)cc1 | > 100 µM (inactive)
Cn1c(CN2CCN(c3ncc(C(F)(F)F)cc3Cl)CC2)nc2ccncc21 | > 100 µM (inactive)
Cc1cc(NC(=O)C2CC2)ccc1OC1CCN(Cc2ccco2)CC1 | 50 µM
Cc1ccc(-c2csc(NC(=O)C=Cc3ccc(S(=O)(=O)N4CCOCC4)cc3)n2)o1 | > 100 µM (inactive)
c1ccc(CNc2cccc3ccncc23)cc1 | > 100 µM (inactive)
Cc1ccc(S(=O)(=O)Nc2ccc(CN3CCN(C(=O)c4cccc(C#N)c4)CC3)cc2)cc1 | > 100 µM (inactive)
O=C(CC1(O)C(=O)N(Cc2cccs2)c2ccc(Br)cc21)c1cccnc1 (stereo not given) | 63 µM
CS(=O)(=O)NC1CCC(Nc2ncc(Br)c(Nc3ccccc3C(N)=O)n2)CC1 (stereo not given) | > 100 µM (inactive)
CCN(Cc1nc2ccc(C(=O)N3CCN(c4ncccn4)CC3)cc2[nH]1)C1CCCc2cccnc21 (stereo not given) | > 100 µM (inactive)
C[C@@H](Oc1cc(-n2cnc3cc(N)ccc32)sc1C(N)=O)c1ccccc1Cl | 20 µM
O=C1OCc2ccc(Nc3nccc(-c4cnn5ncccc45)n3)cc21 | > 100 µM (inactive)
Cc1ccccc1CNc1cc(C2CC2)nc(-c2nccn2C)n1 | 16 µM
FC(F)(F)c1cc(C2CCCN(Cc3c[nH]c4ccccc34)C2)nc2ncnn12 (stereo not given) | > 100 µM (inactive)

Structure (SMILES) | IC50
O=C1NCc2cccc(Nc3nc(NC4CCC(O)CC4)ncc3Br)c21 (stereo not given) | > 100 µM (inactive)
CC(Cn1ccnc1)NC(=O)COc1ccc(Cl)c(Cl)c1 (stereo not given) | > 100 µM (inactive)
CN1C(=O)c2ccccc2Sc2ccc(NC(=O)NCc3ccco3)cc21 | > 100 µM (inactive)
COc1ccc(-c2cnc(NC(=O)c3cc(-c4ccccn4)n[nH]3)n2C)cc1 | > 100 µM (inactive)
COc1cccc(CCNC(=O)C(c2cn[nH]c2)N2CCN(c3ccc(Cl)cc3)CC2)c1 (stereo not given) | 50 µM
C=CCN(Cc1cccs1)C(=O)CSc1nnc(-c2ccc3c(c2)OCO3)o1 | > 100 µM (inactive)
CC(Cn1ccnc1)NC(=O)C1CC1c1cccc(Cl)c1Cl (stereo not given) | > 100 µM (inactive)
CCCCNc1nccc(-c2c(-c3ccc(F)cc3)nn3c(N4CCOCC4)cccc23)n1 | > 100 µM (inactive)
CC(=O)Nc1ccc(Nc2nccc(-c3cnn4ncccc34)n2)cc1C(F)(F)F | > 100 µM (inactive)
O=C1CSC(c2cccnc2)N1c1ccc(Cl)cc1Cl (stereo not given) | > 100 µM (inactive)
NC(=O)c1cc(NC(=O)c2ccccc2COc2ccccc2)ccc1Cl | > 100 µM (inactive)
CNS(=O)(=O)c1ccccc1Nc1nc(Nc2ccnn2C)ncc1Cl | 50 µM
N#Cc1ccc(C(=O)Nc2cccc(-c3cccc(CN4CCC(O)CC4)c3)c2)cc1 | 40 µM
COc1ccc(-c2cc(C)no2)cc1S(=O)(=O)Nc1ccc(C)c(C)c1 | > 100 µM (inactive)
O=C1CN(Cc2ccco2)C2CS(=O)(=O)CC2N1c1ccc(Cl)cc1 (stereo not given) | > 100 µM (inactive)
Cc1ccc(C)c(-n2nnnc2Sc2nc([N+](=O)[O-])nn2C)c1 | > 100 µM (inactive)
Nc1nc(-c2ccccc2)cc(-c2nc3ncccc3[nH]2)n1 | 40 µM
O=S1N=C(NCCCN(Cc2ccc(F)cc2)c2ccccn2)C(NCc2ccncc2)=N1 (stereo not given) | 79 µM
COc1cc(NC(=O)Nc2cccc(CNC(=O)OC3CCCCC3)c2)ccc1-c1cnco1 | 40 µM
Cc1nn(-c2nc(N)nc(-c3ccccn3)n2)c(C)c1Cc1ccccc1 | > 100 µM (inactive)
Cc1nn(-c2ccccc2)nc1CNC(=O)CN(Cc1ccccn1)Cc1ccccn1 | > 130 µM (inactive)
O=C(NCCc1ccn(-c2ccccc2)n1)C1CCCCC1 | > 100 µM (inactive)
